In brackets after ≈: the same amount, converted by molar mass. Like-named read-outs stand apart in the source and are kept apart here.

The test system of one assay is C. neoformans H99 strain. In words: Fungal susceptibility test, broth microdilution MIC. The assay is classed as cell-based, Cryptococcus neoformans. As to conditions: for MIC: Cryptococcus neoformans, H99STRAIN. In a few lines:
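Compound MICs were determined by broth microdilution using a compound concentration series.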

The target of the next assay is T1, C1A Prp8 intein mutant (Cryptococcus gattii, UniProt E6R027, C1531A).
T1 sequence (E6R027 1531-1700 C1531A): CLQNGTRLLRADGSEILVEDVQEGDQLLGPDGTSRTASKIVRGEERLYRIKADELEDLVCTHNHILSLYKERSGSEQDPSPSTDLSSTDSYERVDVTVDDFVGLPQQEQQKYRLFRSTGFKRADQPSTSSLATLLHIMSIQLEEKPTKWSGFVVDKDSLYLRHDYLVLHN
The conditions noted are these: C1A versus WT, SPR. The protocol: The Prp8 intein and mutants were immobilized onto a ProteOn™ GLH sensor chip (2,500-7,000 RU) (Bio-Rad). A 3-fold dilution series of compounds was injected as the analytes. A blank surface blocked by ethanolamine was used as the control surface. The experiment was carried out at a flow rate of 100 μl/min using a PBSTD buffer containing 1×PBS, 0.005% surfactant P20, and 5% DMSO. Association (ka) and dissociation (kd) rates, as well as the dissociation constant (KD), were obtained by global fitting of the SPR data from multiple concentrations to a simple 1:1 Langmuir binding model, using the ProteOn Manager software suite (Bio-Rad).

In the case of `O=C(Nc1ccc(F)cc1)c1nnsc1S(=O)(=O)c1ccc(Cl)cc1` [6G-318S, 5-[(4-chlorophenyl)sulfonyl]-N-(4-fluorophenyl)-1,2,3-thiadiazole-4-carboxamide], the MIC is 1.56 µM in the assay with C. neoformans H99 strain (C. neoformans H99, microbroth dilution, read-out: MIC H99); 0.6 to 1 µg/mL with C. neoformans H99 strain (C. neoformans and other related species, read-out: minimum inhibitory concentration (MIC) 90); 0.62 µg/mL with C. neoformans H99 strain (H99 strain, 48 h, 30° C., read-out: MIC C. neoformans). In addition, the “MIC C. neoformans” value with C. neoformans H99 strain (H99 strain, 48 h, 30° C.) came to 0.6 µg/mL (≈ 1.51 µM). In addition, the “reduction of binding affinity by Cys1 to alanine mutation” value at C1A Prp8 intein mutant is listed as about 3 fold.

Source of the values: US20230233533A1, “COMPOSITIONS, METHODS OF TREATING AND PREVENTING FUNGAL INFECTIONS, AND METHODS OF INHIBITING PRP8 INTEIN EXPRESSION” (Health Research, Inc., priority 2020, published 2023).
